In the Kinase Knowledgebase extract (Sharma et al. 2016):

Biological target: PIK3CA (human) (UniProt P42336)
Experiment: Assessment of PIK3CA Kinase Activity

PIK3CA (human), sequence (P42336 whole entry, looked up): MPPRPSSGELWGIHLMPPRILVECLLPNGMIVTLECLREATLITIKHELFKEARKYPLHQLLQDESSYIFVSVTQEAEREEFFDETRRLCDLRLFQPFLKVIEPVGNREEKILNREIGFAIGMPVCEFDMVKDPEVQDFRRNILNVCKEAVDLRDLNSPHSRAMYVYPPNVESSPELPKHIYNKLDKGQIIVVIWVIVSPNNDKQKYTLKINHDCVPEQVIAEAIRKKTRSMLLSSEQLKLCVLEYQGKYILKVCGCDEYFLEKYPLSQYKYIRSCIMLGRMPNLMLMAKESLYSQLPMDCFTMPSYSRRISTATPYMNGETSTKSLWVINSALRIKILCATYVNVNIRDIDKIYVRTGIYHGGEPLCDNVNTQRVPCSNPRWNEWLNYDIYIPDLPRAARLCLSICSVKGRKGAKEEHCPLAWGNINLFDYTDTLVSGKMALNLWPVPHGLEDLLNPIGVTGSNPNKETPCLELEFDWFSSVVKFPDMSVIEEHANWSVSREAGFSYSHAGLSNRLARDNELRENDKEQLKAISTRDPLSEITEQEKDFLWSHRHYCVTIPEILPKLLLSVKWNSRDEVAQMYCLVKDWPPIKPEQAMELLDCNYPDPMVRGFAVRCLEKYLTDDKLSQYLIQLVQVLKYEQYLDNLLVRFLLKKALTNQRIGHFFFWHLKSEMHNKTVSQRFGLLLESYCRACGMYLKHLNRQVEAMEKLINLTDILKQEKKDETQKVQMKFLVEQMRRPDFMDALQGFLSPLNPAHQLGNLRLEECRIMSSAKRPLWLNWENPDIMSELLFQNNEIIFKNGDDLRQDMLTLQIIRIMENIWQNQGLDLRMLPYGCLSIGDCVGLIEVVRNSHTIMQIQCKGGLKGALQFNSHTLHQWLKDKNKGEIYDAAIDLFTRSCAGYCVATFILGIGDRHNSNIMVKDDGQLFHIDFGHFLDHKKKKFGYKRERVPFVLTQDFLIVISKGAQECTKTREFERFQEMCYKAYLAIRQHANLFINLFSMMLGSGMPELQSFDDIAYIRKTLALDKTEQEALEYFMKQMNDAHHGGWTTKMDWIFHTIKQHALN

Row | Structure (SMILES) | IC50
1 | COc1ncc(-c2nc(N3CCOCC3)c3sc(CN(C)c4ncc(C(=O)NO)cn4)cc3n2)cn1 | < 100 nM
2 | CS(=O)(=O)N1CCN(Cc2cc3nc(-c4cccc5[nH]ncc45)nc(NCCCCCC(=O)NO)c3s2)CC1 | > 10000 nM
3 | CN(Cc1cc2nc(-c3ccccc3)nc(N3CCOCC3)c2s1)c1ncc(C(=O)NO)cn1 | > 10000 nM
4 | CS(=O)(=O)N1CCN(Cc2cc3nc(-c4cccc5nn(CCCCCC(=O)NO)cc45)nc(N4CCOCC4)c3s2)CC1 | > 10000 nM
5 | CN(Cc1cc2nc(-c3ccc4[nH]c(C(F)(F)F)nc4c3)nc(N3CCOCC3)c2s1)c1ncc(C(=O)NO)cn1 | < 100 nM
6 | CC(O)c1ccc(F)c(-c2nc(N3CCOCC3)c3sc(CN(C)c4ncc(C(=O)NO)cn4)cc3n2)c1 (stereo not drawn) | 100 to 1000 nM
7 | CN(Cc1cc2nc(-c3cccc4c3CC(=O)N4)nc(N3CCOCC3)c2s1)c1ncc(C(=O)NO)cn1 | > 10000 nM
8 | CS(=O)(=O)N1CCN(Cc2cc3nc(-c4cccc5c4cnn5CCCCC(=O)NO)nc(N4CCOCC4)c3s2)CC1 | > 10000 nM
9 | CNc1ccc(-c2nc(N3CCOCC3)c3sc(NS(=O)(=O)c4ccc(C=CC(=O)NO)cc4)cc3n2)cn1 | < 100 nM
10 | CN(Cc1cc2nc(-c3cccc(C(=O)O)c3)nc(N3CCOCC3)c2s1)c1ncc(C(=O)NO)cn1 | 100 to 1000 nM
11 | CNCCOc1ccc(-c2nc(N3CCOCC3)c3sc(CN(C)c4ncc(C(=O)NO)cn4)cc3n2)cn1 | > 10000 nM
12 | CN(Cc1cc2nc(-c3ccc(N)c(F)c3)nc(N3CCOCC3)c2s1)c1ncc(C(=O)NO)cn1 | < 100 nM
13 | CCOc1ccc(-c2nc(N3CCOCC3)c3sc(CN(C)c4ncc(C(=O)NO)cn4)cc3n2)cn1 | < 100 nM
14 | CNc1ccc(-c2nc(N3CCOCC3)c3sc(CN(CCO)c4ncc(C(=O)NO)cn4)cc3n2)cn1 | < 100 nM
15 | Nc1ncc(-c2nc(N3CCOCC3)c3sc(NS(=O)(=O)c4cccc(/C=C/C(=O)NO)c4)cc3n2)cn1 | < 100 nM
16 | CCCc1nc2cc(C=CC(=O)NO)ccc2n1CCNCc1cc2nc(-c3ccc(NC)nc3)nc(N3CCOCC3)c2s1 | < 100 nM
17 | Nc1ccc(-c2nc(N3CCOCC3)c3sc(CNCc4ccc(C(=O)NO)cc4)cc3n2)cc1 | > 10000 nM

Row | Structure (SMILES) | IC50
18 | CN(Cc1cc2nc(-c3cc(F)c(N)c(F)c3)nc(N3CCOCC3)c2s1)c1ncc(C(=O)NO)cn1 | 100 to 1000 nM
19 | CNc1ccc(-c2nc(N3CCOCC3)c3sc(C(C)(C)Nc4ncc(C(=O)NO)cn4)cc3n2)cn1 | < 100 nM
20 | CC(C)OC(=O)Nc1ccc(-c2nc(N3CCOCC3)c3sc(CN(C)c4ncc(C(=O)NO)cn4)cc3n2)cc1 | > 10000 nM
21 | CN(Cc1cc2nc(-c3cccc(S(=O)(=O)CCO)c3)nc(N3CCOCC3)c2s1)c1ncc(C(=O)NO)cn1 | > 10000 nM
22 | CNc1ccc(-c2nc(N3CCOCC3)c3sc(C(C)N(C)c4ncc(C(=O)NO)cn4)cc3n2)cn1 (stereo not drawn) | < 100 nM
23 | CN(Cc1cc2nc(-c3ccc(C#N)cc3)nc(N3CCOCC3)c2s1)c1ncc(C(=O)NO)cn1 | > 10000 nM
24 | CN(Cc1cc2nc(-c3ccc(OCCO)nc3)nc(N3CCOCC3)c2s1)c1ncc(C(=O)NO)cn1 | < 100 nM
25 | CN(C)CCOc1ccc(-c2nc(N3CCOCC3)c3sc(CN(C)c4ncc(C(=O)NO)cn4)cc3n2)cn1 | > 10000 nM
26 | COc1ccc(-c2nc(N3CCOCC3)c3sc(CN(CCO)c4ncc(C(=O)NO)cn4)cc3n2)cn1 | < 100 nM
27 | CC(=NO)c1ccc(F)c(-c2nc(N3CCOCC3)c3sc(CN(C)c4ncc(C(=O)NO)cn4)cc3n2)c1 | 100 to 1000 nM
28 | CN(Cc1cc2nc(-c3ccc(N)c([N+](=O)[O-])c3)nc(N3CCOCC3)c2s1)c1ncc(C(=O)NO)cn1 | < 100 nM
29 | COc1ccc(-c2nc(N3CCOCC3)c3sc(C(C)(C)Nc4ncc(C(=O)NO)cn4)cc3n2)cn1 | < 100 nM
30 | CCCc1nc2cc(C=CC(=O)NO)ccc2n1CCN(C)Cc1cc2nc(-c3ccc(N)cc3)nc(N3CCOCC3)c2s1 | 100 to 1000 nM
31 | Cc1ncc(-c2nc(N3CCOCC3)c3sc(CN(C)c4ncc(C(=O)NO)cn4)cc3n2)s1 | 100 to 1000 nM
32 | COc1ncc(-c2nc(N3CCOCC3)c3sc(NS(=O)(=O)c4ccc(C=CC(=O)NO)cc4)cc3n2)cn1 | < 100 nM
33 | CN(Cc1cc2nc(-c3ccc4c(c3)NC(=O)CO4)nc(N3CCOCC3)c2s1)c1ncc(C(=O)NO)cn1 | > 10000 nM
